Measurements from ChEMBL document CHEMBL1909046, “DrugMatrix in vitro pharmacology data”.

Experiments:
Cannabinoid receptor 1 = Cannabinoid receptor 1 (Homo sapiens, UniProt P21554); type: cell membranes, Chem-1, Membrane; conditions: chem-1; further: in other assays of this panel Not Active means under 50% inhibition at 10 µM
[1] = DRUGMATRIX: Glutamate, AMPA radioligand binding (ligand: [3H] AMPA); type: cell membranes, Rattus norvegicus, Wistar, Cerebral cortex, Membrane; conditions: Not Active = under 50% inhibition at 10 µM
[2] = molecular target: T1, Muscarinic acetylcholine receptor M2 (Homo sapiens, UniProt P08172); type: cell membranes, CHO-K1, Membrane; further: in other assays of this panel Not Active means under 50% inhibition at 10 µM
T1 sequence (P08172 whole entry): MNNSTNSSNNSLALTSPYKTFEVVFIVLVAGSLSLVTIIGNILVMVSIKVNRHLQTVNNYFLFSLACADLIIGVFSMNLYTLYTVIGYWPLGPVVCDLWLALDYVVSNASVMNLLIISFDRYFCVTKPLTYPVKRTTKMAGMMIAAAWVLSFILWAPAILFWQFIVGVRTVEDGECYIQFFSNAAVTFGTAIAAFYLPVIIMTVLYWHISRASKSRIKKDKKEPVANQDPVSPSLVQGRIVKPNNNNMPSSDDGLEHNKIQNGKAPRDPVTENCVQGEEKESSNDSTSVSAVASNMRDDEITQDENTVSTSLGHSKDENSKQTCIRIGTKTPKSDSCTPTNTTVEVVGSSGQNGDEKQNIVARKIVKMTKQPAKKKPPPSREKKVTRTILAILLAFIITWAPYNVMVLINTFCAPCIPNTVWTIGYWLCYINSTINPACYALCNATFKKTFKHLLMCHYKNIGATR

[3] = molecular target: cGMP-specific 3',5'-cyclic phosphodiesterase (Homo sapiens, UniProt O76074); experiment: DRUGMATRIX: Phosphodiesterase PDE5 enzyme inhibition (substrate: [3H]cGMP + cGMP); type: tissue-based, Platelet; conditions: platelet; Not Active = under 50% inhibition at 10 µM
[4] = molecular target: Platelet-activating factor receptor (Homo sapiens, UniProt P25105); type: tissue-based; further: in other assays of this panel Not Active means under 50% inhibition at 10 µM
[5] = molecular target: 5-hydroxytryptamine receptor 1B (Rattus norvegicus, UniProt P28564); type: cell membranes, Wistar, Cerebral cortex, Membrane; further: in other assays of this panel Not Active means under 50% inhibition at 10 µM
Acetylcholinesterase = Acetylcholinesterase (Homo sapiens, UniProt P22303); experiment: DRUGMATRIX: Acetylcholinesterase enzyme inhibition (substrate: acetylthiocholine); type: cell-based, HEK293; conditions: hek293; Not Active = under 50% inhibition at 10 µM
Sequence of Acetylcholinesterase (P22303 whole entry): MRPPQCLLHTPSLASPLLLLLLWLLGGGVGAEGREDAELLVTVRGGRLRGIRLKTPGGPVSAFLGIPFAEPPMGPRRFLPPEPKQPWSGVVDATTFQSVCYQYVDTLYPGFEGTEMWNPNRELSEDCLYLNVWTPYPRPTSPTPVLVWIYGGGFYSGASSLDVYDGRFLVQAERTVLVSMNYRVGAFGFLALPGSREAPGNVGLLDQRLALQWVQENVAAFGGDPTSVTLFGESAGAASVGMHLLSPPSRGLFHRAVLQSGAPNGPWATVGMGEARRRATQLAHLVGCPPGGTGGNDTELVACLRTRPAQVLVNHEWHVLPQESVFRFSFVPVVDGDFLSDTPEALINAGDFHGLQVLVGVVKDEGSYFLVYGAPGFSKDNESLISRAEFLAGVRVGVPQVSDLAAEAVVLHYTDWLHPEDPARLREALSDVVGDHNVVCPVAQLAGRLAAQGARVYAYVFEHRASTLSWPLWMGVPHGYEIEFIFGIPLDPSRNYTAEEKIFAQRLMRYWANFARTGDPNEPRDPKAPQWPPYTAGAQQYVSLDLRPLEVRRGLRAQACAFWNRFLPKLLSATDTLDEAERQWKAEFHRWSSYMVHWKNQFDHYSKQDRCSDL

Sequence of 5-hydroxytryptamine receptor 1B (P28564 whole entry): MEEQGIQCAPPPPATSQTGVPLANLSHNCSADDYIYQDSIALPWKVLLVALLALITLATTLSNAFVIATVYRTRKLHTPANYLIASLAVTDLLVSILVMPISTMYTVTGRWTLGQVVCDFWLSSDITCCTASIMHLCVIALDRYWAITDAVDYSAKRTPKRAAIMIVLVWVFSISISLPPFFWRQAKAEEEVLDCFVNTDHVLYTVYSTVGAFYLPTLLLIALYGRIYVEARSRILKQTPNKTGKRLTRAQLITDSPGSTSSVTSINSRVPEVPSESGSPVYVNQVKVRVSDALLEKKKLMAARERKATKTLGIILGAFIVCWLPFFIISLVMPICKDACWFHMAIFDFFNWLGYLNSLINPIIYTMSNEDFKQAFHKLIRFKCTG
Sequence of Cannabinoid receptor 1 (P21554 whole entry): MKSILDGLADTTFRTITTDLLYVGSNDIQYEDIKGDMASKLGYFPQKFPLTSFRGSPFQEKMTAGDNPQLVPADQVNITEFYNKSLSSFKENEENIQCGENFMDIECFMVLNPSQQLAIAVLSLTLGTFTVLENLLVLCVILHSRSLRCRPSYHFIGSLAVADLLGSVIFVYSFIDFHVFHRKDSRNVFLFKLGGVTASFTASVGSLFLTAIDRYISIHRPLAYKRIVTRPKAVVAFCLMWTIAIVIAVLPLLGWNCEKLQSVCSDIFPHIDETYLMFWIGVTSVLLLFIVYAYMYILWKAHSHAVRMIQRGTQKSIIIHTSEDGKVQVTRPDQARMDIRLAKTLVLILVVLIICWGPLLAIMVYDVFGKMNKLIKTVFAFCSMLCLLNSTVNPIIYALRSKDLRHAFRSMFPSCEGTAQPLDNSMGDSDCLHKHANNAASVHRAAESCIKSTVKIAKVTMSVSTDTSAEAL
Sequence of Platelet-activating factor receptor (P25105 whole entry): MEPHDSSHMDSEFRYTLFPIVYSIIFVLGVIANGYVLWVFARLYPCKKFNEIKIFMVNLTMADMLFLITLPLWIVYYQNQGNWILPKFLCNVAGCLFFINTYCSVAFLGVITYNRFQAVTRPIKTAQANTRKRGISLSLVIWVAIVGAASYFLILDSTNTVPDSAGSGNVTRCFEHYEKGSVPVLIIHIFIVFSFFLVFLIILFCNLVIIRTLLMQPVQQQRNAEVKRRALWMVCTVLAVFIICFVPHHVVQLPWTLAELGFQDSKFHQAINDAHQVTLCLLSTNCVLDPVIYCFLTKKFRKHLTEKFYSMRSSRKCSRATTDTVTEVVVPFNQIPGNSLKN

CC#C[C@]1(O)CC[C@H]2[C@@H]3CCC4=CC(=O)CCC4=C3[C@@H](c3ccc(N(C)C)cc3)C[C@@]21C [MIFEPRISTONE]
Not Active: IC50 (Cannabinoid receptor 1) | IC50 [1] | Ki [1] | IC50 ([2]; cho-k1) | IC50 [3] | IC50 [4] | IC50 [5] | IC50 (Acetylcholinesterase)

CC[C@@]1(O)C(=O)OCc2c1cc1n(c2=O)Cc2cc3c(CN(C)C)c(O)ccc3nc2-1 [TOPOTECAN]
Not Active: IC50 (Cannabinoid receptor 1) | IC50 [1] | Ki [1] | IC50 ([2]; cho-k1) | IC50 [3] | IC50 [4] | IC50 [5] | IC50 (Acetylcholinesterase)

Nc1nc(N)c2nc(-c3ccccc3)c(N)nc2n1
Not Active: IC50 (Cannabinoid receptor 1) | IC50 [1] | Ki [1] | IC50 ([2]; cho-k1) | IC50 [3] | IC50 [4] | IC50 [5] | IC50 (Acetylcholinesterase)

Cc1cc2c(s1)Nc1ccccc1N=C2N1CCN(C)CC1 [OLANZAPINE]
433 nM: Ki ([5]; read-out: Ki)
707 nM: IC50 ([5]; read-out: IC50)
Not Active: IC50 (Cannabinoid receptor 1) | IC50 ([2]; cho-k1) | IC50 [3] | IC50 [4] | IC50 (Acetylcholinesterase)

CC[C@H](C)[C@@H](CO[C@@H](Cc1ccccc1)C(=O)N[C@@H](CCS(C)(=O)=O)C(=O)OC(C)C)NC[C@@H](N)CS
Not Active: IC50 (Cannabinoid receptor 1) | IC50 [1] | Ki [1] | IC50 [3] | IC50 [4] | IC50 [5] | IC50 (Acetylcholinesterase)
3570 nM: IC50 ([2]; read-out: IC50)
1270 nM: Ki ([2]; read-out: Ki)

CO[C@@]12[C@H](COC(N)=O)C3=C(C(=O)C(C)=C(N)C3=O)N1C[C@@H]1N[C@@H]12 [MITOMYCIN]
Not Active: IC50 (Cannabinoid receptor 1) | IC50 [1] | Ki [1] | IC50 ([2]; cho-k1) | IC50 [3] | IC50 [4] | IC50 [5] | IC50 (Acetylcholinesterase)

CCOC(=O)C1=C(C)NC(C)=C(C(=O)OCC)C1c1ccccc1/C=C/C(=O)OC(C)(C)C [LACIDIPINE]
Not Active: IC50 (Cannabinoid receptor 1) | IC50 [1] | Ki [1] | IC50 ([2]; cho-k1) | IC50 [3] | IC50 [4] | IC50 [5] | IC50 (Acetylcholinesterase)

Cc1cn([C@H]2C=C[C@@H](CO)O2)c(=O)[nH]c1=O [STAVUDINE]
Not Active: IC50 (Cannabinoid receptor 1) | IC50 [1] | Ki [1] | IC50 ([2]; cho-k1) | IC50 [3] | IC50 [4] | IC50 [5] | IC50 (Acetylcholinesterase)

C#C[C@]1(O)CC[C@H]2[C@@H]3[C@H](C)CC4=C(CCC(=O)C4)[C@H]3CC[C@@]21C [TIBOLONE]
Not Active: IC50 (Cannabinoid receptor 1) | IC50 [1] | Ki [1] | IC50 ([2]; cho-k1) | IC50 [3] | IC50 [4] | IC50 [5] | IC50 (Acetylcholinesterase)

CC(O)C(=O)O (stereo not given) [LACTIC ACID]
Not Active: IC50 (Cannabinoid receptor 1) | IC50 [1] | Ki [1] | IC50 ([2]; cho-k1) | IC50 [3] | IC50 [4] | IC50 [5] | IC50 (Acetylcholinesterase)

O=C(O)c1cc(/N=N/c2ccc(S(=O)(=O)Nc3ccccn3)cc2)ccc1O [SULFASALAZINE]
Not Active: IC50 (Cannabinoid receptor 1) | IC50 [1] | Ki [1] | IC50 ([2]; cho-k1) | IC50 [3] | IC50 [4] | IC50 [5] | IC50 (Acetylcholinesterase)

CNCCCC12CCC(c3ccccc31)c1ccccc12 [MAPROTILINE]
Not Active: IC50 (Cannabinoid receptor 1) | IC50 [3] | IC50 [4] | IC50 [5] | IC50 (Acetylcholinesterase)

CN(C)CCC=C1c2ccccc2COc2ccccc21 [DOXEPIN]
Not Active: IC50 (Cannabinoid receptor 1) | IC50 [3] | IC50 [4] | IC50 [5] | IC50 (Acetylcholinesterase)

C[N+]1(C)[C@@H]2C[C@@H](OC(=O)[C@H](CO)c3ccccc3)C[C@H]1[C@@H]1O[C@@H]12.[Br-] [METHSCOPOLAMINE BROMIDE]
Not Active: IC50 (Cannabinoid receptor 1) | IC50 [1] | Ki [1] | IC50 [3] | IC50 [4] | IC50 [5] | IC50 (Acetylcholinesterase)
